Values joined by “and” are separate entries in the source; they are usually repeats but may differ in a detail not shown here. Equal values may be shown once.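 Compound exposure: 48 hours, 5 concentrations, 96-well plates. Abbreviation: GI50, concentration required for 50% inhibition of growth. TGI marks complete inhibition of growth.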
Legend:
Test in all cases: growth of human tumour cells (NCI), 48 h
[1] = test system: 786-0 renal
[2] = test system: A498 renal
[3] = test system: A549 NSCLC
[4] = test system: ACHN renal
[5] = test system: BT-549 breast
[6] = test system: CAKI-1 renal
[7] = test system: CCRF-CEM leukemia
[8] = test system: COLO 205 colon
[9] = test system: DU-145 prostate
[10] = test system: EKVX NSCLC
[11] = test system: HCC-2998 colon
[12] = test system: HCT-116 colon
[13] = test system: HCT-15 colon
[14] = test system: HL-60(TB) leukemia
[15] = test system: HOP-92 NSCLC
[16] = test system: HS 578T breast
[17] = test system: HT29 colon
[18] = test system: IGROV1 ovarian
[19] = test system: K-562 leukemia
[20] = test system: KM12 colon
[21] = test system: LOX IMVI melanoma
[22] = test system: M14 melanoma
[23] = test system: MCF7 breast
[24] = test system: MDA-MB-231 breast
[25] = test system: MDA-MB-435
[26] = test system: MDA-N
[27] = test system: MOLT-4 leukemia
[28] = test system: NCI-H226 lung
[29] = test system: NCI-H23 lung
[30] = test system: NCI-H460 lung
[31] = test system: NCI-H522 lung
[32] = test system: NCI/ADR-RES ovarian
[33] = test system: OVCAR-3 ovarian
[34] = test system: OVCAR-4 ovarian
[35] = test system: OVCAR-5 ovarian
[36] = test system: OVCAR-8 ovarian
[37] = test system: PC-3 prostate
[38] = test system: RPMI-8226 leukemia
[39] = test system: SF-268 CNS
[40] = test system: SF-295 CNS
[41] = test system: SF-539 CNS
[42] = test system: SK-MEL-2 melanoma
[43] = test system: SK-MEL-28 melanoma
[44] = test system: SK-MEL-5 melanoma
[45] = test system: SK-OV-3 ovarian
[46] = test system: SN12C renal
[47] = test system: SNB-19 CNS
[48] = test system: SNB-75 CNS
[49] = test system: SR leukemia
[50] = test system: SW-620 colon
[51] = test system: T-47D breast
[52] = test system: TK-10 renal
[53] = test system: U251 CNS
[54] = test system: UACC-257 melanoma
[55] = test system: UO-31 renal

COc1ccc(C2c3c(-c4ccccc4)nn(-c4ccccc4)c3Oc3ncn4nc(CC#N)nc4c32)cc1OC (configuration not stated)
GI50 [1]: 8.4 µM and 2.09 µM | TGI [1]: 20.7 µM and 5.51 µM | GI50 [2]: > 100 µM and 10.8 µM | TGI [2]: > 100 µM and 31.3 µM | GI50 [3]: > 100 µM and 13.7 µM | TGI [3]: > 100 µM and 68.1 µM | TGI [4]: > 100 µM and 16.1 µM | GI50 [5]: 19.9 µM and 8.82 µM | TGI [5]: 59.2 µM and > 41.6 µM | TGI [6]: > 100 µM and 13.8 µM | GI50 [7]: 28.6 µM and > 100 µM | TGI [7]: > 100 µM | GI50 [8]: > 100 µM | TGI [8]: > 100 µM | TGI [9]: > 100 µM | TGI [10]: > 76.3 µM | GI50 [11]: > 100 µM and 22.6 µM | TGI [11]: > 100 µM | GI50 [12]: 40.7 µM and 9.55 µM | TGI [12]: > 100 µM | TGI [13]: > 100 µM | GI50 [14]: 30.4 µM and > 100 µM | TGI [14]: > 100 µM | GI50 [15]: 17.6 µM and 1.96 µM | TGI [16]: 59.1 µM and 6.86 µM | GI50 [17]: 99.9 µM and 14.8 µM | TGI [17]: > 100 µM | GI50 [18]: 16.8 µM and 5.81 µM | TGI [18]: 41.7 µM and > 47 µM | TGI [19]: > 100 µM | GI50 [20]: 78.2 µM and > 22.1 µM | TGI [20]: > 100 µM | GI50 [21]: 15.7 µM and 3.63 µM | TGI [21]: 35.8 µM and 26.3 µM | GI50 [22]: 55.6 µM and 6.33 µM | TGI [22]: > 100 µM and 13.3 µM | GI50 [23]: 36.5 µM and 99.4 µM | TGI [23]: > 100 µM | GI50 [24]: 9.03 µM and 1.77 µM | TGI [24]: 22.8 µM and 4.68 µM | GI50 [25]: > 100 µM | TGI [25]: > 100 µM | GI50 [26]: > 100 µM and 16.2 µM | TGI [26]: > 100 µM | TGI [27]: > 100 µM | GI50 [28]: 15.9 µM and 2.09 µM | TGI [28]: 39 µM and 6.28 µM | GI50 [29]: 47.2 µM and 19.5 µM | TGI [29]: > 100 µM | TGI [30]: > 100 µM and 46.7 µM | GI50 [31]: 40.2 µM and 4.62 µM | TGI [31]: > 100 µM and 15.7 µM | GI50 [32]: 26.2 µM and 3.6 µM | TGI [32]: 67.5 µM and > 45.4 µM | GI50 [33]: 75.4 µM and 10.3 µM | TGI [33]: > 100 µM | TGI [34]: 65.9 µM and 7.38 µM | TGI [35]: > 100 µM and 13.8 µM | TGI [36]: > 100 µM | GI50 [37]: 32.6 µM and 12.3 µM | TGI [37]: > 100 µM and 49.1 µM | GI50 [38]: > 100 µM and 20.9 µM | TGI [38]: > 100 µM | GI50 [39]: 16.6 µM and 3.29 µM | TGI [39]: 42.5 µM and > 36.1 µM | TGI [40]: > 100 µM | GI50 [41]: 19.2 µM and 2.49 µM | TGI [41]: 36.9 µM and > 27.6 µM | TGI [42]: > 100 µM and 47.3 µM | TGI [43]: > 100 µM | TGI [44]: > 100 µM | TGI [45]: > 100 µM and 17.9 µM | TGI [46]: 44.5 µM and > 41.9 µM | GI50 [47]: 23.6 µM and 4.62 µM | TGI [47]: 73.7 µM and 33.7 µM | TGI [48]: > 100 µM and 12.2 µM | TGI [49]: 33 µM | GI50 [50]: 24.2 µM and > 82.3 µM | TGI [50]: > 100 µM | TGI [51]: > 54 µM | GI50 [52]: 27.8 µM and 3.31 µM | TGI [52]: > 100 µM and 14.6 µM | GI50 [53]: 23.5 µM and 3.62 µM | TGI [53]: 63.8 µM and 16.7 µM | TGI [54]: > 100 µM and 40.4 µM | GI50 [55]: > 100 µM | TGI [55]: > 100 µM
